Data published in the CheMixHub viscosity set.

What was measured:
[1] = xn = mol fraction of the nth substance listed

OCc1ccccc1 + CC(C)O
viscosity [mPa·s], [1], 101 kPa
Details | x1 = 0.076 | x1 = 0.1562 | x1 = 0.2409 | x1 = 0.3305 | x1 = 0.4254 | x1 = 0.5262 | x1 = 0.6334 | x1 = 0.7476 | x1 = 0.8695
298.15 K | 2.033 | 2.167 | 2.366 | 2.607 | 2.88 | 3.203 | 3.57 | 3.975 | 4.423
303.15 K | 1.776 | 1.896 | 2.06 | 2.258 | 2.486 | 2.756 | 3.06 | 3.4 | 3.785
308.15 K | 1.532 | 1.649 | 1.796 | 1.975 | 2.172 | 2.406 | 2.675 | 2.975 | 3.304
313.15 K | 1.338 | 1.432 | 1.556 | 1.701 | 1.87 | 2.07 | 2.303 | 2.557 | 2.828

C1CCCC1 + C1COCO1
viscosity [mPa·s], [1], 101.3 kPa
Details | x1 = 0.0988 | x1 = 0.1997 | x1 = 0.3005 | x1 = 0.3997 | x1 = 0.4992 | x1 = 0.5979 | x1 = 0.7027 | x1 = 0.7987 | x1 = 0.8995
298.15 K | 0.5513 | 0.5176 | 0.4908 | 0.4685 | 0.4495 | 0.434 | 0.4216 | 0.4149 | 0.4124
313.15 K | 0.4666 | 0.438 | 0.415 | 0.3968 | 0.3804 | 0.3679 | 0.3581 | 0.352 | 0.351

CC(=O)OC(C)=O
viscosity [mPa·s]
Details | 298.15 K | 313.15 K | 323.15 K
101 kPa | 0.842 | 0.693 | –
101.33 kPa | 0.831 | – | 0.611

Nc1ccccc1[N+](=O)[O-] + CC(C)=O
viscosity [mPa·s], [1], 101 kPa
Details | 298.15 K | 303.15 K | 308.15 K | 313.15 K
x1 = 0.3297 | 1.229 | 1.142 | 1.059 | 0.9826
x1 = 0.5407 | 2.366 | 2.175 | 1.994 | 1.817

CC(C)(C)C1CCCCC1
102 kPa
Details | viscosity [mPa·s]
293.15 K | 1.7
303.15 K | 1.42
313.15 K | 1.21
323.15 K | 1.04
